# System: choroidal neovascularization
# Experiment: choroidal NV in a mouse model, topical administration
# Assay type: in vivo
# Conditions: applicant's previous findings
smiles,measurement,value
NC(=O)Cc1cccc(C(=O)c2ccccc2)c1N [nepafenac],choroidal NV,inhibited
